# Measured values reported in paper PMC10322781 (Archives of Toxicology, 2023).
# Where “and” joins values, the source holds several entries; their conditions need not be identical. Equal values may be shown once.
# How the values were obtained:
# [1] = test system: mdr1a/b; assay: Pgp inhibition calcein assay in P388/dx cells; format: cell-based, murine; conditions: for Emax Pgp inhibition: calcein assay, fold compared to untreated cells; for IC50: calcein efflux
# Protocol: To investigate the potential Pgp inhibition by the rifamycins, the murine monocytic leukaemia cell line P388/dx (overexpressing the murine Pgp counterpart mdr1a/b (Boesch et al. [1991])) and the corresponding parental cell line P388 were used (kindly provided by Dr. D. Ballinari; Pharmacia & Upjohn, Milan, Italy). Cells were cultured under standard conditions with RPMI 1640 cell culture medium supplemented with FCS 10%, 2 mM glutamine, […] β-mercaptoethanol, 100 U/mL penicillin, and 100 µg/mL streptomycin sulphate. The culture medium of the P388/dx cell line was additionally supplemented with doxorubicin (final concentration: 0.45 µM) to maintain mdr1a/b expression. One day before the experiments, P388/dx cells were set to doxorubicin-free medium.
# Pgp activity was determined using a calcein assay as described previously (Fröhlich et al. [2004]) with zosuquidar (10 µM) as a positive control.
# [2] = target: CYP3A4 (Homo sapiens, UniProt P08684); conditions: microsomes
# Protocol: For this purpose, rifamycins were tested between 0.5 to 50 µM. […] A reaction mixture without CYP3A4 was incubated as negative control. Luminescence signals were normalized to the untreated cell control.
# [3] = test system: LS180 cells; format: in vitro ADME; conditions: human
# Protocol: The UPLC-MS/MS system consisted of a triple stage quadrupole mass spectrometer (Waters Xevo TQ-S, Milford, MA, USA) and an Acquity Classic UPLC® (Waters). Mass spectrometric analysis was performed by selective reaction monitoring using positive electrospray ionization. […] Because of their considerable molecular size, rifamycins were chromatographically separated on a Waters Peptide BEH C18 Column (300 Å, 1.7 μm, 2.1 mm × 50 mm) to foster optimal mass transfer kinetics. The mobile phase was composed of H20/ACN (95/5, v/v) + 0.1% FA (eluent A) and ACN + 0.1% FA (eluent B). […] The total run time was 4 min, and the column was heated to 60 °C. The injection volume was set to 20 μL with a flow rate of 0.5 mL/min. A pellet of untreated LS180 cells (500,000 cells/sample) was used for calibration standards and QC standard. […] Subsequently, proteins were precipitated with 110 μL ACN (uptake samples) or 100 μL ACN (calibration standards and QC standards). […] To determine intracellular rifamycin concentrations, measured compound concentrations were normalized to the total pellet volume. This was achieved by multiplying the measured mean cellular volume of a LS180 cell (CASY cell counter, Schärfe System, Reutlingen, Germany) by the mean cell number of four wells of an identically prepared and treated cell culture plate.
# [4] = test system: Pgp; assay: Induction of Pgp activity in LS180 cells (rhodamine123 efflux, flow cytometry); format: cell-based, human; conditions: LS180, 144 h exposure; for Emax Pgp activity (activation): fold compared to untreated cells; for EC50 at 144 h: human, LS180 cells, probe rhodamine123 (0.4 µM), with zosuquidar (10 µM), rhodamine123 efflux, read-out: EC50 Pgp activity (activation)
# Protocol: To assess the induction of Pgp activity, 200,000 LS180 cells per well were seeded in a 6-well plate, cultured for 3 days and subsequently exposed to rifamycins for 144 h. After treatment, cells were harvested and subjected to the rhodamine efflux assay as described previously (Theile et al. [2013]; Weiss et al. [2008]). Briefly, cells were incubated with the fluorescent Pgp substrate rhodamine123 (0.4 µM) on a rotary shaker for 30 min at 37 °C under protection from light. Subsequently, cells were incubated with the selective Pgp inhibitor zosuquidar (10 µM) for 50 min at 37 °C on a rotary shaker. Medium without zosuquidar was used as a negative control. All washing steps were performed with ice-cold PBS at 4 °C. Intracellular rhodamine123 fluorescence was determined using a flow cytometer (MACSQuant analyzer 10, Miltenyi Biotec, Bergisch Gladbach, Germany). Thirty thousand cells were used for the analysis. For data evaluation, the ratio of zosuquidar-inhibited samples to non-inhibited samples of the rifamycin experiment was calculated and normalized to the ratio of untreated cell controls (no rifamycin treatment).
# [5] = test system: CYP3A4
# Protocol: (§1) A random hexamer primer was used according to the manufacturer’s instructions. […] Experiments were performed in four independent biological replicates with technical duplicates (PCR runs) for each concentration.
# [6] = test system: CYP3A4; remark: listed apart in the source
# Protocol: To determine CYP3A4 activity in LS180 cells after rifamycin treatment, 20,000 cells per well were seeded into 96-well plates and allowed to grow for 3 days until 70% confluency. […] Cells were washed twice with PBS and then pre-incubated with PBS + 2% FCS for 30 min at 37 °C. PBS was removed and replaced by 50 µL of 3 µM luciferin-IPA (selective CYP3A4 substrate) and incubated for 60 min at 37 °C. After incubation, 25 µL supernatant from each well was transferred to a white 96-well plate and 25 µL detection reagent (containing luciferase) was added. Cells were subsequently incubated for 20 min at room temperature. […] CYP3A4 activity was normalized to untreated controls.
# [7] = test system: ABCB1; assay: ABCB1 mRNA expression in LS180 cells (real-time RT-PCR); format: cell-based, human; conditions: for EC50 at 24 h / EC50 at 96 h / EC50 at 144 h: human, LS180 cells
# Protocol: as §1
# [8] = test system: P388 cells; assay: Calcein assay in parental P388 cells; format: cell-based, murine
# [9] = design: method as in Zhang et al. [2008]; conditions: 300 mg rifabutin; ref Zhang et al. [2008]; cited from earlier work
# [10] = cited from earlier work
# [11] = LS180, 24 h, fold induction compared to untreated cells
# [12] = LS180, 96 h, fold induction compared to untreated cells
# [13] = LS180, 144 h, fold induction compared to untreated cells
# [14] = LS180, 24 h, extracellular concentration
# [15] = LS180, 24 h (24*), intracellular concentrations
# Chain of CYP3A4 (Homo sapiens, UniProt P08684) (P08684 whole entry): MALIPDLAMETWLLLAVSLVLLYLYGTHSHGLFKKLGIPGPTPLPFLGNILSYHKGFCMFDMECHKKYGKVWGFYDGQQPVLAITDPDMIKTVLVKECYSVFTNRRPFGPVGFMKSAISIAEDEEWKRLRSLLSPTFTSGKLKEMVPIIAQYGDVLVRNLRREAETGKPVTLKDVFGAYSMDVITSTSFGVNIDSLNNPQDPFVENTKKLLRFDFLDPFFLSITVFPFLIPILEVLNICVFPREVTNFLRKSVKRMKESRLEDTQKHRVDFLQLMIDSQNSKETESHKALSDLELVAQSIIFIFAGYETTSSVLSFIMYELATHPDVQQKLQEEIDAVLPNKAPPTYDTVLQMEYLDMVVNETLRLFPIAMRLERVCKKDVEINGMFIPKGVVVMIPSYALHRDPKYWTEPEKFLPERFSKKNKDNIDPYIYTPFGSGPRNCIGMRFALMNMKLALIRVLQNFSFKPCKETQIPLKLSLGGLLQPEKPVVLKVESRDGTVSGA
Compound,Emax Pgp inhibition [1],IC50 [1],Emax Pgp activity (activation) [4],EC50 at 144 h [4],"Emax ABCB1 mRNA expression [7, 11]","Emax ABCB1 mRNA expression [7, 12]","Emax ABCB1 mRNA expression [7, 13]","EC50 at 24 h [7, 14]","EC50 at 96 h ([7]; LS180, 96 h)","EC50 at 144 h ([7]; LS180, 144 h)",intracellular calcein fluorescence [8],also measured
CO[C@H]1/C=C/O[C@@]2(C)Oc3c(C)c(O)c4c(c3C2=O)C2=NC3(CCN(CC(C)C)CC3)NC2=C(NC(=O)/C(C)=C\C=C\[C@H](C)[C@H](O)[C@@H](C)[C@@H](O)[C@@H](C)[C@H](OC(C)=O)[C@@H]1C)C4=O [Rifabutin],4.9 ± 1.3 fold,320 ± 100 nM,2.8 ± 0.48 fold,1100 ± 160 nM,1.4 ± 0.024 fold,2.8 ± 0.16 fold,4.5 ± 0.71 fold,1100 ± 27 nM,1800 ± 1100 nM,1500 ± 720 nM,remained unchanged,"IC50 ([1]; listed as rifabutin): 300 nM; lowering of CYP3A4 activity ([2]; human): approx. 80%; time to reach intracellular concentration equilibrium [3]: 6 h; molar metabolite-to-parent ratio (25-O-deacetyl metabolite) ([3]; 10 µM): 0.002 to 0.006; increase of CYP3A4 mRNA levels [5]: twofold; concentration dependence of CYP3A4 activity [6]: no concentration dependence; increase in CYP3A4 activity after exposure [6]: no detectable increase; expected drug concentration in the gut lumen [9]: approx. 1.4 mM; effect on dabigatran etexilate kinetics ([10]; 300 mg rifabutin, ref Lutz et al., CPT [2018b]): not affected; reduction of bioavailability of doravirine ([10]; repeated administration of 300 mg rifabutin, ref Khalilieh et al. [2018]): 50%; reduction of bioavailability of indinavir ([10]; repeated administration of 300 mg rifabutin, ref Kraft et al. [2004]): 34%"
CO[C@H]1/C=C/O[C@@]2(C)Oc3c(C)c(O)c4c(O)c(c(/C=N/N5CCN(C)CC5)c(O)c4c3C2=O)NC(=O)/C(C)=C\C=C\[C@H](C)[C@H](O)[C@@H](C)[C@@H](O)[C@@H](C)[C@H](OC(C)=O)[C@@H]1C [Rifampicin],4.3 ± 0.53 fold,13000 ± 4100 nM,3.2 ± 0.37 fold,1000 ± 1.4 nM,2.6 ± 0.068 fold,5.1 ± 0.12 fold,7.0 ± 0.53 fold,8600 ± 470 nM,1100 ± 56 nM,1000 ± 65 nM,remained unchanged,"IC50 ([1]; listed as rifampicin): 12900 nM; EC50 [7, 15]: 37000 ± 2000 nM; Emax ABCB1 mRNA expression ([7]; LS180, 24 h (24*), intracellular concentrations, compared to untreated): 2.6 fold and 2.6 ± 0.068 fold; EC50 at 24 h [7, 15]: 37400 nM; lowering of exposure to indinavir ([10]; repetitive administration of 600 mg standard dose of rifampicin, ref Avihingsanon et al. [2012]): approx. 90%; lowering of exposure to doravirine ([10]; repetitive administration of 600 mg standard dose of rifampicin, ref Yee et al. [2017]): approx. 90%"
CN(C)C(=N)N=C(N)N [metformin],,,,,,,,,,,,effect on CYP3A4 activity [2]: no effect
